Results from patent US7704986B2, “Vitamin D3 analogues for the prevention and treatment of bone disorders” (K.U. Leuven Research and Development, priority 2004, dated 2010).

Assays:
vitamin D receptor (VDR) = target: T1, vitamin D receptor (VDR) (Sus scrofa, UniProt A3RGC1); assay: Affinity for vitamin D receptor: competition with [3H]1α,25(OH)2D3; assay type: binding; details: pig intestinal mucosa supernatant, 4° C. 20 hours; 1α,25(OH)2D3 = 100%
T1 construct: high speed supernatant from intestinal mucosa homogenates obtained from normal pigs; from tissue; host or cells: pig intestinal mucosa (high speed supernatant of homogenate)
T1 sequence (A3RGC1 1-427): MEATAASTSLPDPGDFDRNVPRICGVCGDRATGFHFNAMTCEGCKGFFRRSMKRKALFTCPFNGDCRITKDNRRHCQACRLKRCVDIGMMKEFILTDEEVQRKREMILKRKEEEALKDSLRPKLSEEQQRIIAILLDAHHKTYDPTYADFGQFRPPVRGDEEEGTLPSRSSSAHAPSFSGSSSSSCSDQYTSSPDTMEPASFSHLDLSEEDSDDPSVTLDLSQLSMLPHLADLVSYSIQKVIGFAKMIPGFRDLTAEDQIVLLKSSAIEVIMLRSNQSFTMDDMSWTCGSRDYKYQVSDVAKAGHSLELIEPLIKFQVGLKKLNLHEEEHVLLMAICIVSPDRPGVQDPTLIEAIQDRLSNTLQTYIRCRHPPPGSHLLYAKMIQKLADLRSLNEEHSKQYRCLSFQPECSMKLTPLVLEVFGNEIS
Description: The methods used herein to evaluate the binding properties of vitamin D analogues are state of the art techniques used for steroid hormone (including vitamin D) binding assays. […] Incubation was performed at 4° C. for 20 hours and phase separation was obtained by addition of dextran-coated charcoal.

[1] = target: T2, human vitamin D binding protein (hDBP) (Homo sapiens, UniProt P02774); assay: Affinity for human vitamin D binding protein; details: hDBP 0.18 μM, 4° C. 3 hours; 1,25(OH)2D3 = 100
T2 sequence (P02774 17-474): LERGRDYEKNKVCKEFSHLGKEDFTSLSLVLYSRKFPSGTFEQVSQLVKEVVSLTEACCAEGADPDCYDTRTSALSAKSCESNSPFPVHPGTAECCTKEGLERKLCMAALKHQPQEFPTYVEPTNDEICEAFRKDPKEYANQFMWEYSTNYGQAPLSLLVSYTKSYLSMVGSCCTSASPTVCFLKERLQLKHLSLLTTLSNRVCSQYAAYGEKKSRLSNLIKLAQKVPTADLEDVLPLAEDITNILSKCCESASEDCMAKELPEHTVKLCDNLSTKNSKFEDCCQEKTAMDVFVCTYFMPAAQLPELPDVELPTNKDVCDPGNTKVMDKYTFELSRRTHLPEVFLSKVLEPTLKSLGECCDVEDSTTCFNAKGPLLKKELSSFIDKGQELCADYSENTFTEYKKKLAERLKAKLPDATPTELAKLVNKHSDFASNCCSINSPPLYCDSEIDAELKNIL
Description: Binding of 1α,25(OH)2D3 analogues to hDBP was performed at 4° C. […] Phase separation was then obtained by the addition of 0.5 ml of cold dextran-coated charcoal.

NMRI mice = assay: In vivo activity: serum and femur calcium after 7 daily i.p. injections; details: for Serum calcium vs. control (%) / femur calcium vs. control (%): 7 days
Description: Eight weeks old, male NMRI mice were fed a vitamin D-replete diet (0.2% calcium, 1% phosphate, 2000 U vitamin D/kg; Hope Farms, Woerden, The Netherlands). Groups of six mice were intraperitoneally injected daily during 7 consecutive days with different doses of 1,25(OH)2D3 (0.2 and 0.4 μg/kg/day) or analogues. The control group was injected with vehicle (arachis oil). The average weight of each group of 6 mice was determined at the beginning and at the end of the experiment. The following parameters were evaluated: serum calcium and femur calcium. Serum calcium was measured by a microcolorimetric assay (Sigma, St. Louis, Mo.). Femurs were removed and femur calcium content was measured in HCl-dissolved bone ash (obtained by heating for 24 hours in an oven at 100° C.), using the same technique as for serum calcium. Student's t-tests were carried out to detect significant differences; p<0.05 was accepted as significant. […]

[2] = Table 6, dose 0.4 μg/kg/day, * in cell = p < 0.05
[3] = dose 0.2 μg/kg/d i.p., * in cell = P < 0.05
[4] = dose 0.4 μg/kg/d i.p., * in cell = P < 0.05

CC(C)[C@H](O)CC[C@H](C)[C@@]1(C)CC[C@@H](/C=C/C=C2C[C@@H](O)C[C@H](O)C2)C1(C)C (stereo in doubt) [example 19, (1R,3R)-5-{(E)-3-[(S)-3-((S)-4-hydroxy-1-(S)-methyl-5-methyl-hexyl)-2,2,3-trimethyl-cyclopentyl]-allylidene}-cyclohexane-1,3-diol] was tested, and the “VDR (relative affinity)” value (vitamin D receptor (VDR)) was 3%, the “DBP (relative affinity)” value [1] was 4% and the “Serum calcium vs. control (%)” value (NMRI mice; dose 5 μg/kg/d i.p.) was 100%. For the same compound, the “femur calcium vs. control (%)” value (NMRI mice; dose 5 μg/kg/d i.p., * in cell = P < 0.05) was 115* %.

In the case of C=C1/C(=C\C=C2/CCC[C@]3(C)[C@@H]([C@H](C)CCCC(C)(C)O)CC[C@@H]23)C[C@@H](O)C[C@@H]1O [1,25(OH)2D3, Calcitriol, reference compound], the “Femur calcium versus control (%)” value (NMRI mice; Table 6, dose 0.2 μg/kg/day) is reported as 97%, the “Serum calcium versus control (%)” value (NMRI mice; Table 6, dose 0.2 μg/kg/day, * in cell = p < 0.05) is reported as 121* % and the “Femur calcium versus control (%)” value (NMRI mice; [2]) is reported as 94* %. For the same compound, the “Serum calcium versus control (%)” value (NMRI mice; [2]) was 136* %, the “Serum calcium vs. control (%)” value (NMRI mice; [3]) was 121* % and the “femur calcium vs. control (%)” value (NMRI mice; [3]) was 97%. The “Serum calcium vs. control (%)” value (NMRI mice; [4]) was 136* % and the “femur calcium vs. control (%)” value (NMRI mice; [4]) was 94* %.

CCC(O)(CC)CCC[C@H](C)[C@@]1(C)CC[C@@H](/C=C/C=C2C[C@@H](O)C[C@H](O)C2)C1(C)C [(1R,3R)-5-((E)-3-((1S,3R)-3-((1S)-5-ethyl-5-hydroxy-1-methylheptyl)-2,2,3-trimethylcyclopentyl)-2-propenylidene)cyclohexane-1,3-diol] was tested, and the “VDR (relative affinity)” value (vitamin D receptor (VDR)) was 60% and the “DBP (relative affinity)” value [1] was <0.1%.

In the case of C=C1/C(=C\C=C\[C@@H]2CC[C@](C)([C@H](C)CC#CC(C)(C)O)C2(C)C)C[C@@H](O)C[C@@H]1O [(1R,3S)-5-((Z,2E)-3-((1S,3R)-3-((1R)-5-hydroxy-1,5-dimethyl-3-hexynyl)-2,2,3-trimethylcyclopentyl)-2-propenylidene)-4-methylenecyclohexane-1,3-diol], the “VDR (relative affinity)” value (vitamin D receptor (VDR)) is reported as 60%, the “DBP (relative affinity)” value [1] is reported as 0% and the “Serum calcium vs. control (%)” value (NMRI mice; dose 2 μg/kg/d i.p.) is reported as 105%. For the same compound, the “femur calcium vs. control (%)” value (NMRI mice; dose 2 μg/kg/d i.p., * in cell = P < 0.05) was 113* %.

With C=C1/C(=C\C=C\[C@@H]2CC[C@](C)([C@H](C)CCCC(O)(C(F)(F)F)C(F)(F)F)C2(C)C)C[C@@H](O)C[C@@H]1O [(1R,3S)-5-((Z,2E)-3-((1S,3R)-3-((1R)-6,6,6-trifluoro-5-hydroxy-1-methyl-5-(trifluoromethyl)hexyl)-2,2,3-trimethylcyclopentyl)-2-propenylidene)-4-methylenecyclohexane-1,3-diol] the “VDR (relative affinity)” value (vitamin D receptor (VDR)) was 30%, the “DBP (relative affinity)” value [1] was 40% and the “Serum calcium vs. control (%)” value (NMRI mice; [4]) was 98%. For the same compound, the “femur calcium vs. control (%)” value (NMRI mice; [4]) was 114* %.

For C=C1/C(=C\C=C\[C@@H]2CC[C@](C)([C@H](C)CC#CC(O)(C(F)(F)F)C(F)(F)F)C2(C)C)C[C@@H](O)C[C@@H]1O [(1R,3S)-5-((Z,2E)-3-((1S,3R)-3-((1R)-6,6,6-trifluoro-5-hydroxy-1-methyl-5-trifluoromethyl-3-hexynyl)-2,2,3-trimethylcyclopentyl)-2-propenylidene)-4-methylenecyclohexane-1,3-diol], the “VDR (relative affinity)” value (vitamin D receptor (VDR)) was 60%, the “DBP (relative affinity)” value [1] was 0% and the “Serum calcium vs. control (%)” value (NMRI mice; [4]) was 94%. For the same compound, the “femur calcium vs. control (%)” value (NMRI mice; [4]) was 115* %.

With C=C1/C(=C\C=C\[C@@H]2CC[C@](C)([C@@H](C)CCCC(O)(C(F)(F)F)C(F)(F)F)C2(C)C)C[C@@H](O)C[C@@H]1O [(1R,3S)-5-((Z,2E)-3-((1S,3R)-3-((1S)-6,6,6-trifluoro-5-hydroxy-1-methyl-5-(trifluoromethyl)hexyl)-2,2,3-trimethylcyclopentyl)-2-propenylidene)-4-methylenecyclohexane-1,3-diol] the “VDR (relative affinity)” value (vitamin D receptor (VDR)) was 60%, the “DBP (relative affinity)” value [1] was 6% and the “Serum calcium vs. control (%)” value (NMRI mice; dose 0.05 μg/kg/d i.p.) was 106%. The “femur calcium vs. control (%)” value (NMRI mice; dose 0.05 μg/kg/d i.p., * in cell = P < 0.05) was 112* %.

With C=C1/C(=C\C=C\[C@@H]2CC[C@](C)([C@@H](C)CC#CC(O)(C(F)(F)F)C(F)(F)F)C2(C)C)C[C@@H](O)C[C@@H]1O [(1R,3S)-5-((Z,2E)-3-((1S,3R)-3-((1S)-6,6,6-trifluoro-5-hydroxy-1-methyl-5-trifluoromethyl-3-hexynyl)-2,2,3-trimethylcyclopentyl)-2-propenylidene)-4-methylenecyclohexane-1,3-diol] the “VDR (relative affinity)” value (vitamin D receptor (VDR)) was 75%, the “DBP (relative affinity)” value [1] was 2% and the “Serum calcium vs. control (%)” value (NMRI mice; [3]) was 103%. For the same compound, the “femur calcium vs. control (%)” value (NMRI mice; [3]) was 117* %.

In the case of C=C1/C(=C\C=C\[C@@H]2CC[C@](C)([C@@H](C)CC[C@@H](O)C(C)C)C2(C)C)C[C@@H](O)C[C@@H]1O [example 20, (1R,3S)-5-((Z,2E)-3-((1S,3R)-3-((1S,4R)-4-hydroxy-1,5-dimethylhexyl)-2,2,3-trimethylcyclopentyl)-2-propenylidene)-4-methylenecyclohexane-1,3-diol], the “VDR (relative affinity)” value (vitamin D receptor (VDR)) is reported as 9%, the “DBP (relative affinity)” value [1] is reported as 4% and the “Serum calcium vs. control (%)” value (NMRI mice; dose 10 μg/kg/d i.p.) is reported as 99%. The “femur calcium vs. control (%)” value (NMRI mice; dose 10 μg/kg/d i.p., * in cell = P < 0.05) was 111* %.

C=C1/C(=C\C=C\[C@@H]2CC[C@](C)([C@@H](C)CC[C@H](O)C(C)C)C2(C)C)C[C@@H](O)C[C@@H]1O [example 24, (1R,3S)-5-((Z,2E)-3-((1S,3R)-3-((1S,4S)-4-hydroxy-1,5-dimethylhexyl)-2,2,3-trimethylcyclopentyl)-2-propenylidene)-4-methylenecyclohexane-1,3-diol] was tested, and the “VDR (relative affinity)” value (vitamin D receptor (VDR)) was 20%, the “DBP (relative affinity)” value [1] was 4% and the “Serum calcium vs. control (%)” value (NMRI mice; [3]) was 98%. For the same compound, the “femur calcium vs. control (%)” value (NMRI mice; [3]) was 112* %.
